Test results taken from patent US12479894B2, “Pea peptide with auxiliary hypoglycemic function and preparation method thereof” (CHINA NATIONAL RESEARCH INSTITUTE OF FOOD & FERMENTATION …, priority 2019, dated 2025).

How the values were obtained:
Assay type in all cases: in vivo
[1] = tested on: Kunming mice; assay: Detection of fasting blood glucose level in high-fat diet / streptozotocin diabetic mice; details: FIG. 11; gavage 28 days; pea peptides 1,600 mg/kg BW, metformin 185 mg/kg BW; AUC of days 1, 7, 14, 21, 28; versus model group
Procedure: (§1) Hypoglycemic functions of the pea peptide samples were evaluated by using the following method.
(§2) 110 Kunming mice were weighed and randomly divided into 11 groups in total: a blank group, a model group, a positive group (metformin 185 mg/kg BW), Example 1-low dose (800 mg/kg BW), Example 1-medium dose (1600 mg/kg BW), Example 1-high dose (3,200 mg/kg BW), Example 2 (1,600 mg/kg BW), Example 3 (1,600 mg/kg BW), Comparative Example 1 (,1600 mg/kg BW), Comparative Example 2 (1,600 mg/kg BW), and Comparative Example 3 (1,600 mg/kg BW), with 10 mice for each group. No any treatment was performed on the blank group; the remaining 10 groups were fed with high-fat diet for 30 days, and then intraperitoneally injected with streptozotocin to induce diabetes, for modeling; except for the blank group and the model group, the positive group was gavaged with metformin, and the experimental group was gavaged with corresponding pea peptide, the gavage was successively performed for 28 days, and the following indicators were detected:
a. Detection of Fasting Blood Glucose Level
After modeling, blood samples were collected from tail tips of 11 groups of mice on days 1, 7, 14, 21 and 28, respectively, to determine concentration of fasting blood glucose, and an area under curve, AUC, was calculated for each group based on the average value of 10 data.

[2] = tested on: Kunming mice; assay: Detection of glucose tolerance level (oral glucose 2 g/kg) in high-fat diet / streptozotocin diabetic mice; details: FIG. 13; last day, glucose 2 g/kg by gavage 60 min after treatment; AUC 0-120 min; pea peptides 1,600 mg/kg BW, metformin 185 mg/kg BW; versus model group
Procedure: as §1, §2
b. Detection of Glucose Tolerance Level […]

[3] = tested on: Kunming mice; assay: Detection of serum insulin level in high-fat diet / streptozotocin diabetic mice; details: FIG. 15, last day after 28 days gavage, pea peptides 1,600 mg/kg BW, metformin 185 mg/kg BW, versus model group
Procedure: as §1, §2
c. Detection of Insulin Level
On the last day of the experiment, all mice were killed, blood samples were collected and centrifuged to obtain serum, serum insulin concentrations (μg/L) were detected, and serum insulin concentration was calculated for each group based on the average value of 10 data.

`CN(C)C(=N)N=C(N)N` [positive group, metformin] was tested, and the “fasting blood glucose level” value [1] was “significantly reduced fasting blood glucose level”, the “blood glucose concentration (glucose tolerance capability)” value [2] was “significantly reduce the blood glucose concentration” and the insulin concentration [3] was “significantly improve the insulin concentrations”.
